The values below are quoted from earlier work in US7128928B2, “Ophthalmic formulation with novel gum composition” (Pharmacia Corporation, priority 2002, dated 2006).

The structures appear in SMILES notation.

In the series the test system is infective gram-positive bacteria.

With `CC(=O)NC[C@H]1CN(c2ccc(N3CCOCC3)c(F)c2)C(=O)O1` [linezolid], the MIC90 result was “about 4 μg/ml”.
